Measurements from US20260166122A1, “USE OF MICROPEPTIDE MIAC” (NANJING ANJI BIOTECHNOLOGY CO., LTD, priority 2023, published 2026).
Read-outs that look alike come from different tables or passages of the source. Ends that are not written are not given here.

Experiments:
[1] = test system: human esophageal carcinoma cells Eca-109; type: cell-based; conditions: 72 h
[2] = test system: human esophageal carcinoma cells CaES-17; type: cell-based; conditions: 72 h
[3] = test system: human breast cancer cells MX-1; type: cell-based; conditions: 72 h
[4] = test system: human breast cancer cells MCF-7; type: cell-based; conditions: 72 h
[5] = test system: human non-small cell lung cancer cells NCI-H1299; type: cell-based; conditions: 72 h
[6] = test system: human non-small cell lung cancer cells NCI-H1650; type: cell-based; conditions: 72 h
[7] = test system: prostate cancer Du145 cells; test: transwell migration inhibition, Du145; type: cell-based, human; conditions: 48 h
Method: (§1) Human prostate cancer, cervical cancer, osteosarcoma, ovarian cancer, melanoma, and hepatocellular carcinoma cells were inoculated into transwell chambers, with 100 μL per well; for an administration group, 100 μL of a micropeptide MIAC was added to each of the chambers at a different dose; and no medicament was added to a blank group. Then, 0.6 mL of a complete medium comprising 10% FBS was added to transwell lower chambers to stimulate cell migration, followed by incubation at 37° C. with 5% CO2 for 48 h. The culture medium in the wells was discarded, and the cells were fixed with methanol at room temperature for 30 min, stained with 0.1% crystal violet at room temperature for 10 min, and rinsed thoroughly with clear water; the unmigrated cells in the upper layer were wiped off with a cotton swab; and the migrated cells were observed under a microscope, and four visual fields were selected for photography and counting. The migration inhibition rate (MI) was calculated using the following formula: […]
(§2) where Ntest represents the number of migrated cells in the administration group, and Ncontrol represents the number of migrated cells in the blank control group.

[8] = test system: cervical cancer Hela cells; test: transwell migration inhibition, Hela; type: cell-based, human; conditions: 48 h
Method: as §1, §2

osteosarcoma MG-63 cells = test: transwell migration inhibition, MG-63; type: cell-based, human; conditions: 48 h
Method: as §1, §2

[9] = test system: ovarian cancer SKOV3 cells; test: transwell migration inhibition, SKOV3; type: cell-based, human; conditions: 48 h
Method: as §1, §2

[10] = test system: malignant melanoma A375 cells; test: transwell migration inhibition, A375; type: cell-based, human; conditions: 48 h
Method: as §1, §2

[11] = test system: hepatocellular carcinoma Hep3B cells; test: transwell migration inhibition, Hep3B; type: cell-based, human; conditions: 48 h
Method: as §1, §2

[12] = test system: human hepatocellular carcinoma Hep3B cells; test: subcutaneously transplanted Hep3B tumor in nude mice; type: in vivo, BALB/c nude mouse; conditions: Hep3B subcutaneous transplanted tumor, BALB/c nude mice, 5, 10, 15, 20 mg/kg; dose-dependent
Method: Human hepatocellular carcinoma Hep3B cells were cultured in large quantities and digested with a 0.25% trypsin solution; and the cell suspension after digestion termination was centrifuged at 1000 rpm for 5 minutes, and the cells were resuspended in a serum-free MEM medium and then counted to adjust the cell concentration to 5×10^7 cells/mL. Each BALB/c nude mouse (4-6 weeks old, female, weighing 14-16 g, adaptively housed in an SPF animal breeding room for 1 week) was inoculated with 100 μL of the cell suspension in the left axilla, with an inoculated cell amount of 5×10^6 cells. After inoculation, the tumor growth at the inoculation site of nude mice was closely observed. On the 7th day after inoculation, white nodules appeared at the inoculation site, which could be moved subcutaneously upon touch. As the tumor tissue grew, a hard tumor mass gradually formed at the inoculation site. […] The volume of the transplanted tumor was measured and recorded every two days, and the formula for calculating the tumor volume (TV) was: tumor volume=0.5×a×b^2, where a is the length (mm) of the transplanted tumor and b is the width (mm) of the transplanted tumor.

Sequence: MERAGVPGFSPRRSSVEAKMQSTSCSVRKSSTVTAWPAVVLLLSWGQRRGG [MIAC, micropeptide inhibiting actin cytoskeleton]
- OD ([1]; Eca-109, 50 μM): 1.072 ± 0.037
- OD ([1]; Eca-109, 100 μM): 0.656 ± 0.045
- OD ([1]; Eca-109, 200 μM): 0.394 ± 0.039
- OD ([2]; CaES-17, 50 μM): 1.168 ± 0.044
- OD ([2]; CaES-17, 100 μM): 0.672 ± 0.051
- OD ([2]; CaES-17, 200 μM): 0.466 ± 0.022
- OD ([3]; MX-1, 50 μM): 1.020 ± 0.028
- OD ([3]; MX-1, 100 μM): 0.808 ± 0.102
- OD ([3]; MX-1, 200 μM): 0.630 ± 0.051
- OD ([4]; MCF-7, 50 μM): 1.281 ± 0.040
- OD ([4]; MCF-7, 100 μM): 0.973 ± 0.027
- OD ([4]; MCF-7, 200 μM): 0.814 ± 0.047
- OD ([5]; NCI-H1299, 50 μM): 1.090 ± 0.022
- OD ([5]; NCI-H1299, 100 μM): 0.754 ± 0.06
- OD ([5]; NCI-H1299, 200 μM): 0.467 ± 0.012
- OD ([6]; NCI-H1650, 50 μM): 1.127 ± 0.022
- OD ([6]; NCI-H1650, 100 μM): 0.955 ± 0.031
- OD ([6]; NCI-H1650, 200 μM): 0.779 ± 0.057
- Inhibition rate (%) ([7]; Du145, 3.125 μmol/L): 39.23%
- Number of migrated cells ([7]; Du145, 3.125 μmol/L): 349.3 ± 98.5
- Inhibition rate (%) ([7]; Du145, 6.25 μmol/L): 69.77%
- Number of migrated cells ([7]; Du145, 6.25 μmol/L): 173.8 ± 48.8
- Inhibition rate (%) ([7]; Du145, 12.5 μmol/L): 82.51%
- Number of migrated cells ([7]; Du145, 12.5 μmol/L): 100.5 ± 11.8
- Inhibition rate (%) ([7]; Du145, 25 μmol/L): 91.87%
- Number of migrated cells ([7]; Du145, 25 μmol/L): 46.8 ± 8.5
- Inhibition rate (%) ([7]; Du145, 50 μmol/L): 94.56%
- Number of migrated cells ([7]; Du145, 50 μmol/L): 31.3 ± 8.4
- Inhibition rate (%) ([8]; 6.25 μmol/L): 12.76%
- Number of migrated cells ([8]; 6.25 μmol/L): 475.0 ± 53.3
- Inhibition rate (%) ([8]; 12.5 μmol/L): 39.23%
- Number of migrated cells ([8]; 12.5 μmol/L): 296.8 ± 45.0
- Inhibition rate (%) ([8]; 25 μmol/L): 33.83%
- Number of migrated cells ([8]; 25 μmol/L): 360.3 ± 119.4
- Inhibition rate (%) ([8]; 50 μmol/L): 61.30%
- Number of migrated cells ([8]; 50 μmol/L): 210.5 ± 66.6
- Inhibition rate (%) (osteosarcoma MG-63 cells; MG-63, 3.125 μmol/L): 64.05%
- Number of migrated cells (osteosarcoma MG-63 cells; MG-63, 3.125 μmol/L): 129.5 ± 19.9
- Inhibition rate (%) (osteosarcoma MG-63 cells; MG-63, 6.25 μmol/L): 83.21%
- Number of migrated cells (osteosarcoma MG-63 cells; MG-63, 6.25 μmol/L): 60.5 ± 26.7
- Inhibition rate (%) (osteosarcoma MG-63 cells; MG-63, 12.5 μmol/L): 90.98%
- Number of migrated cells (osteosarcoma MG-63 cells; MG-63, 12.5 μmol/L): 32.5 ± 6.0
- Inhibition rate (%) (osteosarcoma MG-63 cells; MG-63, 25 μmol/L): 93.13%
- Number of migrated cells (osteosarcoma MG-63 cells; MG-63, 25 μmol/L): 24.8 ± 9.6
- Inhibition rate (%) ([9]; SKOV3, 12.5 μmol/L): 17.17%
- Number of migrated cells ([9]; SKOV3, 12.5 μmol/L): 907.3 ± 46.5
- Inhibition rate (%) ([9]; SKOV3, 25 μmol/L): 52.28%
- Number of migrated cells ([9]; SKOV3, 25 μmol/L): 523.8 ± 35.3
- Inhibition rate (%) ([9]; SKOV3, 50 μmol/L): 62.04%
- Number of migrated cells ([9]; SKOV3, 50 μmol/L): 415.8 ± 21.7
- Inhibition rate (%) ([10]; A375, 12.5 μmol/L): 46.18%
- Number of migrated cells ([10]; A375, 12.5 μmol/L): 139.3 ± 28.5
- Inhibition rate (%) ([10]; A375, 25 μmol/L): 36.52%
- Number of migrated cells ([10]; A375, 25 μmol/L): 164.3 ± 40.1
- Inhibition rate (%) ([10]; A375, 50 μmol/L): 48.70%
- Number of migrated cells ([10]; A375, 50 μmol/L): 132.8 ± 35.1
- Inhibition rate (%) ([11]; 12.5 μmol/L): 66.54%
- Number of migrated cells ([11]; 12.5 μmol/L): 110.8 ± 29.3
- Inhibition rate (%) ([11]; 25 μmol/L): 65.33%
- Number of migrated cells ([11]; 25 μmol/L): 114.8 ± 27.1
- Inhibition rate (%) ([11]; 50 μmol/L): 64.95%
- Number of migrated cells ([11]; 50 μmol/L): 116.0 ± 26.1
- in vivo tumor growth (tumor volume, tumor weight) versus blank control [12]: significantly inhibit the in vivo tumor growth
